# Legend:
# Format in all cases: cell-based
# [1] = system: Porphyromonas gingivalis; experiment: Twenty-four hour optical density growth in BHI; settings: P gingivalis
# Description: (§1) The extent of growth of the tested bacteria in response to selected saccharides (myo-inositol, D-lactitol, D-turanose and N-acetyl-D-mannosamine) was investigated by setting up growth curves in a nutritionally rich medium (brain heart infusion broth (BHI), Oxoid), over 24 hours. Late exponential growth phase liquid cultures were prepared by transferring the respective bacterium from blood agar plates to BHI and overnight incubation at 37° C. in an anaerobic atmosphere for A. viscosus, V. parvula, F. nucleatum, P. gingivalis, P. intermedia, T. forsythia, A. naeslundii, and C. sputigena, and in a 5% CO2 environment for S. salivarius, S. sanguinis, S. mitis, A. actinomycetemcomitans, S. mutans, S. sobrinus and S. gordonii. Overnight cultures were transferred to BHI and adjusted to a concentration of 1×10^7 CFU/ml (colony forming units per ml) by measuring the optical density at 600 nm (OD600) (BioRad SmartSpec 3000). For each strain, 200 μl of the bacterial suspension was added to a 96-well plate containing 20 μl of the respective saccharides. Final concentrations of the saccharides were set to 5, 10, 20 and 25 μmol/ml. […] Plates were incubated as previously described.
# (§2) For each combination of bacterium/saccharide, and for each of their respective controls (i.e. the particular bacterium in the nutritionally rich medium with no saccharide), the optical density was measured at 630 nm (OD630) at 0 h and 24 h (Thermo Scientific Multiskan Ascent). Additionally, the OD630 for combinations of bacterium/saccharides grown in a 5% CO2 environment were also measured every hour between 0 h and 9 h.
# (§3) The experiment was carried out on three different days (thus providing 3 biological replicas) and on each day the experiment was carried out in quadruple (thus providing 4 technical replicas) for each combination of bacterium with saccharide and for each control. For each day and for each combination, the average (mean) of the values obtained (as detailed above) for the four technical replicas was calculated to provide a single value for each combination on each day. The values shown in Tables 5a,b to 6a,b, below, are the average (mean) of the three single values obtained for each combination of bacterium with saccharide.
# [2] = system: Tannerella forsythia; experiment: Twenty-four hour optical density growth in BHI; settings: T forsythia
# Description: as §1, §2, §3
# [3] = system: Fusobacterium nucleatum; experiment: Twenty-four hour optical density growth in BHI; settings: F nucleatum
# Description: as §1, §2, §3
# [4] = system: Capnocytophaga sputigena; experiment: Twenty-four hour optical density growth in BHI; settings: C sputigena
# Description: as §1, §2, §3
# [5] = system: Streptococcus gordonii; experiment: Twenty-four hour optical density growth in BHI; settings: S gordonii
# Description: as §1, §2, §3
# [6] = system: Streptococcus mutans; experiment: Twenty-four hour optical density growth in BHI; settings: for extent of growth: maximal OD630 over 24 hr divided by maximal OD of control (control = 1): S mutans
# Description: as §1, §2, §3
# [7] = system: Actinomyces viscosus; experiment: Twenty-four hour optical density growth in BHI; settings: A viscosus
# Description: as §1, §2, §3
# [8] = system: Actinomyces naeslundii; experiment: Twenty-four hour optical density growth in BHI; settings: A naeslundii
# Description: as §1, §2, §3
# [9] = system: beneficial oral bacteria and pathogenic oral bacteria; experiment: Twenty-four hour optical density, overall prebiotic assessment; settings: concentrations of 10, 20 and 25 μmol/ml
# Text: Substrates that were able to increase the growth (or maximal growth density or extent of growth) of at least one of the above beneficial bacteria while not or only minimally increasing the growth (or maximal growth density) of the pathogenic bacteria are considered to be prebiotic compounds.
# The extent of growth of the tested bacteria in response to selected saccharides (myo-inositol, D-lactitol, D-turanose and N-acetyl-D-mannosamine) was investigated by setting up growth curves in a nutritionally rich medium (brain heart infusion broth (BHI), Oxoid), over 24 hours. Late exponential growth phase liquid cultures were prepared by transferring the respective bacterium from blood agar plates to BHI and overnight incubation at 37° C. in an anaerobic atmosphere for A. viscosus, V. parvula, F. nucleatum, P. gingivalis, P. intermedia, T. forsythia, A. naeslundii, and C. sputigena, and in a 5% CO2 environment for S. salivarius, S. sanguinis, S. mitis, A. actinomycetemcomitans, S. mutans, S. sobrinus and S. gordonii. […]
# as §2
# as §3, with “The values shown in Tables 5a,b to 6a,b, below, are the average (mean) of the three single values obtained for each combination of bacterium with saccharide.” left out
# [10] = system: beneficial oral bacteria and pathogenic oral bacteria; experiment: Twenty-four hour biofilm growth, overall prebiotic assessment; settings: concentrations of 5, 10, 20 and 25 μmol/ml
# Text: Substrates that were able to increase the biofilm mass of at least one of the above beneficial bacteria while not or only minimally increasing the biofilm mass of the pathogenic bacteria are considered to be prebiotic compounds.
# The increase in biofilm formation of the tested bacteria in response to selected saccharides (D-turanose, D-lactitol, myo-inositol, and N-acetyl-D-mannosamine) was investigated by setting up biofilm growth assays in a nutritionally rich medium (brain heart infusion broth (BHI), Oxoid), over 24 hours. Late exponential growth phase liquid cultures were prepared by transferring the respective bacterium from blood agar plates to BHI and overnight incubation at 37° C. in an anaerobic atmosphere for A. viscosus, V. parvula, P. gingivalis, P. intermedia, T. forsythia, A. naeslundii, and C. sputigena, and in a 5% CO2 environment for S. salivarius, S. sanguinis, S. mitis, A. actinomycetemcomitans, S. mutans, and S. gordonii. Overnight cultures were transferred to BHI and adjusted to a concentration of 1×10^7 CFU/ml by measuring the optical density at 600 nm (OD600) (BioRad SmartSpec 3000). For each strain, 200 μl of the bacterial suspension was added to a 96-well plate containing 20 μl of the respective saccharides. Final concentrations of the saccharides were set to 5, 10, 20 and 25 μmol/ml. […] Additionally, for each bacterium tested, a background control, to correct for background staining, was added. This background control contained the bacterium tested and 0.03 weight % chlorhexidine, as an antiseptic. Plates were incubated as previously described. After 24 hrs the supernatant was removed from the wells of the plates. The wells were washed twice with 1×100 μL PBS (phosphate buffered saline), fixed for 20 minutes with 96% vol. ethanol (96% vol. solution in water) and the biofilm retained at the bottom of the wells was stained with 1 weight % crystal violet (1 weight % solution in water). The bound dye was dissolved with 5% vol. acetic acid (5% vol. solution in water). Quantification of the stained biofilm was performed by measuring the absorbance at 630 nm using a Multiskan Ascent microplate reader (Thermo Scientific).
# as §3, with “and” for “and on”, “7a, 7b, 8a, 8b,” for “5a,b to 6a,b,”, “saccharide. […]” for “saccharide.”
smiles,measurement,setting,value
"OC[C@@H](O)[C@@H](O[C@H]1O[C@H](CO)[C@H](O)[C@H](O)[C@H]1O)[C@H](O)[C@@H](O)CO [D-Lactitol, 4-O-α-D-galactopyranosyl-D-glucitol]",extent of growth: maximal OD630 over 24 hr divided by maximal OD of control (control = 1),[1]; 5 μmol/ml,0.9615
same,extent of growth: maximal OD630 over 24 hr divided by maximal OD of control (control = 1),[1]; 10 μmol/ml,0.9989
same,extent of growth: maximal OD630 over 24 hr divided by maximal OD of control (control = 1),[1]; 20 μmol/ml,0.9706
same,extent of growth: maximal OD630 over 24 hr divided by maximal OD of control (control = 1),[1]; 25 μmol/ml,1.0115
same,extent of growth: maximal OD630 over 24 hr divided by maximal OD of control (control = 1),[2]; 5 μmol/ml,0.9351
same,extent of growth: maximal OD630 over 24 hr divided by maximal OD of control (control = 1),[2]; 10 μmol/ml,0.9434
same,extent of growth: maximal OD630 over 24 hr divided by maximal OD of control (control = 1),[2]; 20 μmol/ml,0.9426
same,extent of growth: maximal OD630 over 24 hr divided by maximal OD of control (control = 1),[2]; 25 μmol/ml,0.9367
same,extent of growth: maximal OD630 over 24 hr divided by maximal OD of control (control = 1),[3]; 5 μmol/ml,0.9876
same,extent of growth: maximal OD630 over 24 hr divided by maximal OD of control (control = 1),[3]; 10 μmol/ml,0.9482
same,extent of growth: maximal OD630 over 24 hr divided by maximal OD of control (control = 1),[3]; 20 μmol/ml,0.9034
same,extent of growth: maximal OD630 over 24 hr divided by maximal OD of control (control = 1),[3]; 25 μmol/ml,0.8805
same,extent of growth: maximal OD630 over 24 hr divided by maximal OD of control (control = 1),[4]; 5 μmol/ml,0.8996
same,extent of growth: maximal OD630 over 24 hr divided by maximal OD of control (control = 1),[4]; 10 μmol/ml,0.8742
same,extent of growth: maximal OD630 over 24 hr divided by maximal OD of control (control = 1),[4]; 20 μmol/ml,0.8416
same,extent of growth: maximal OD630 over 24 hr divided by maximal OD of control (control = 1),[4]; 25 μmol/ml,0.8337
same,extent of growth: maximal OD630 over 24 hr divided by maximal OD of control (control = 1),[5]; 5 μmol/ml,0.9828
same,extent of growth: maximal OD630 over 24 hr divided by maximal OD of control (control = 1),[5]; 10 μmol/ml,0.9945
same,extent of growth: maximal OD630 over 24 hr divided by maximal OD of control (control = 1),[5]; 20 μmol/ml,0.9931
same,extent of growth: maximal OD630 over 24 hr divided by maximal OD of control (control = 1),[5]; 25 μmol/ml,1.0101
same,stimulation of growth of S. mutans,[6]; Example 2,does not stimulate growth
same,extent of growth: maximal OD630 over 24 hr divided by maximal OD of control (control = 1),[6]; 5 μmol/ml,0.9466
same,extent of growth: maximal OD630 over 24 hr divided by maximal OD of control (control = 1),[6]; 10 μmol/ml,0.9230
same,extent of growth: maximal OD630 over 24 hr divided by maximal OD of control (control = 1),[6]; 20 μmol/ml,0.9036
same,extent of growth: maximal OD630 over 24 hr divided by maximal OD of control (control = 1),[6]; 25 μmol/ml,0.9149
same,extent of growth: maximal OD630 over 24 hr divided by maximal OD of control (control = 1),[7]; 5 μmol/ml,0.8614
same,extent of growth: maximal OD630 over 24 hr divided by maximal OD of control (control = 1),[7]; 10 μmol/ml,0.9554
same,extent of growth: maximal OD630 over 24 hr divided by maximal OD of control (control = 1),[7]; 20 μmol/ml,1.0275
same,extent of growth: maximal OD630 over 24 hr divided by maximal OD of control (control = 1),[7]; 25 μmol/ml,1.0300
same,extent of growth: maximal OD630 over 24 hr divided by maximal OD of control (control = 1),[8]; 5 μmol/ml,1.0156
same,extent of growth: maximal OD630 over 24 hr divided by maximal OD of control (control = 1),[8]; 10 μmol/ml,1.0334
same,extent of growth: maximal OD630 over 24 hr divided by maximal OD of control (control = 1),[8]; 20 μmol/ml,1.0688
same,extent of growth: maximal OD630 over 24 hr divided by maximal OD of control (control = 1),[8]; 25 μmol/ml,1.0686
same,"prebiotic effects (extent of growth, threshold value 1.25)",[9],exhibited prebiotic effects
same,"prebiotic effects (biofilm growth, threshold value 1.6)",[10],exhibited prebiotic effects
